Laboratory results: PMC12713093, “Hepatitis E Virus ORF1 Polyprotein Harbors a Pocket‐Like Cavity That Is Vital for Virus Replication and Represents a Novel Antiviral Target” (Advanced Science, 2025)

Molecular target: T1, X-RdRp protein (HEV ORF1 X to RdRp domains, forming the 'pocket-like' cavity, PC) (Hepatitis E virus US2, UniProt Q9YLR1)
T1 construct: X-RdRp fragment of ORF1 polyprotein (X 850-998, Hel 1002-1279, RdRp 1298-1765)
T1 sequence (Q9YLR1 793-1708): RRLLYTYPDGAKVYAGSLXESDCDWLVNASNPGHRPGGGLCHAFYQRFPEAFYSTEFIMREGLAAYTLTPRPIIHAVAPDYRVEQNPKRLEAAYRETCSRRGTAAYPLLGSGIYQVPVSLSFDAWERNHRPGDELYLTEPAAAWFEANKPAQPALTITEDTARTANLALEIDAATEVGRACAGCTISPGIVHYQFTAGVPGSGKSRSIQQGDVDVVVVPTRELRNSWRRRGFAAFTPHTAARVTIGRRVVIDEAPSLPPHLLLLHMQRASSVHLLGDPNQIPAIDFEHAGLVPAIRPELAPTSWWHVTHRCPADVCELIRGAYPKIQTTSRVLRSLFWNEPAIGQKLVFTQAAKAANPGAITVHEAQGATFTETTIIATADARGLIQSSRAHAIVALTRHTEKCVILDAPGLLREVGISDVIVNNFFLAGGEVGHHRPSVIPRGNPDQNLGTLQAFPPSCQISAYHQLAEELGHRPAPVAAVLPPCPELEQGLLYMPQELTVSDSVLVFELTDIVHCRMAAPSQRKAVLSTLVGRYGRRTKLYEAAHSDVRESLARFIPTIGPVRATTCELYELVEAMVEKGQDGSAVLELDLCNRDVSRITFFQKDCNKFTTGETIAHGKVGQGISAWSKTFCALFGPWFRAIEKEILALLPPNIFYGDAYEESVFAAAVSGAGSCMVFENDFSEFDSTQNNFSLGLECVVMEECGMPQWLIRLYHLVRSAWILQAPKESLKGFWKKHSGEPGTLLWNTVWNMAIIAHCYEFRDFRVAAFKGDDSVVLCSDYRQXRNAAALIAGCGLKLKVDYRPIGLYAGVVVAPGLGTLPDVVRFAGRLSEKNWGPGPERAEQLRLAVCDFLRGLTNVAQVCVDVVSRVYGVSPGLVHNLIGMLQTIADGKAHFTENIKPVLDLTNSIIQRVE
Assay: SPR, Biacore 8K, CM5 chip, protein immobilised by amine coupling, […] Langmuir fit
Assay type: binding
Conditions: protein refolded from inclusion bodies; site (X/RdRp pocket-like cavity) assigned by docking

Compound `C[C@H]1CC[C@@]2(OC1)O[C@H]1C[C@H]3[C@@H]4CC=C5C[C@@H](O[C@@H]6O[C@@H](C)[C@H](O)[C@@H](O)[C@H]6O)C[C@@H](O[C@@H]6O[C@H](C)[C@H](O)[C@H](O)[C@H]6O)[C@]5(C)[C@H]4CC[C@]3(C)[C@H]1[C@@H]2C` [liriopesides B] has a Kd of 132 µM.
